Laboratory results: US12716077B2, “Fermentative production of isoprenoids” (DSM IP ASSETS B.V., priority 2020, dated 2026)

Experiments:
[1] = Loss (consumption, evaporation or other disappearance) of the 2nd phase solvent during the fermentation; parameters: species or system Yarrowia lipolytica; settings: loss of initial solvent volume, shake plate assay, after 4 days of growth period
Source text: As used herein, the term “not disappearing” in connection with the second phase solvents as defined herein means that the same amount of solvent present at the start of the fermentation is still detectable at the end of the fermentation process. A loss or disappearance of solvent might be due to e.g. consumption by the host cell and/or evaporation during the fermentation. The terms “loss” or “disappearance” are used interchangeably herein. Such solvent as used for the process of the present invention is also called a “stable” solvent. Thus, a stable solvent according to the present invention means a loss or disappearance of the solvent during the fermentation in the range of about 20% or less, e.g. in the range of about 20, 15, 10, 8, 5, 3, 2, 1% or even no loss or disappearance of the solvent during the fermentation.
Shake plate assay. Typically, 200 μl of 0.25% yeast extract, 0.5% peptone (0.25X YP) is inoculated with 10 μl of freshly grown Yarrowia and overlaid with 200 μl of solvent. Candida rugosa Lipase (Creative enzymes) was resuspended in PBS and added to the growth media when the carbon source was 2% corn oil. […] The second phase (Drakeol 5, or others listed in table 6) fraction was removed from the shake plate wells and analyzed by UPLC on a normal phase column and/or C4 HPLC, with a photo-diode array detector (see details below). […]

[2] = Density and viscosity in dependence of the solvent used as 2nd phase; type: physicochemical
Experimental: The performance of said 2nd phases were tested with regards to growth, loss (consumption, evaporation or other ways of disappearance) of the solvents during the fermentation and the density and viscosity of the cultivation medium, wherein the test was carried out after 4 days of growth period.

SMILES: CCCCCCCCCCCC [dode, n-dodecane]
- Loss [1]: 100%
- Loss ([1]; listed as n-dodecane): completely disappeared
- Density [2]: 0.75 g/mL
- Viscosity ([2]; measured at 20° C.): 1.34
